The test has as its system CEM cells HIV-1 protection, formazan growth assay. Description: NCI AIDS Antiviral Assay. The settings on record: for IC50: measured here: growth of uninfected CEM cells. Summed up: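 Screen of anti-HIV-1 activity in human CEM cells using a formazan-based growth measurement at five drug concentrations. Hits with 50% or greater protection were repeated, and confirmation required reproducible complete protection.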

Active and inactive are the calls of the source.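 How the source made its calls: active means compounds giving half or more protection of infected cells from virus-caused growth loss, again on retest; inactive means the rest.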 Bounds are passed on as bounds.

Regarding `CC12CC(=O)C3C(C(=O)C1)C32C` (configuration not stated), the EC50 is greater than 200 µM and the IC50 was greater than 200 µM.
In the case of `CCn1ncc2c1nc(-c1ccccc1)c[n+]2[O-]`, the EC50 is greater than 200 µM and the IC50 is greater than 200 µM.
As to `CC(Cc1ccc(O)c(O)c1)C(C)Cc1ccc(O)c(O)c1` (configuration not stated), the EC50 was greater than 200 µM and the concentration for half-maximal inhibition (IC50) worked out at 8.91 µM.
Take `OC12C=CC(CCCC1)O2` (configuration not stated): the EC50 is greater than 200 µM and the IC50 stood at 12.3 µM.
Consider `CC1=C(C(=O)O)CCC2(C)C3=C(CCC12)C(=O)C(C(C)C)=CC3=O` (configuration not stated), for which the EC50 was greater than 200 µM and the IC50 was found to be 12.3 µM.
The corresponding values for `CCOC(=O)c1ccc(NC(=O)Nc2ccc(Cl)cn2)cc1` are greater than 200 µM and greater than 200 µM.
For the compound `C/C(CC(O)(C(F)(F)Cl)C(F)(F)Cl)=N\NC(N)=S`, the EC50 was greater than 200 µM and the IC50 was 110 µM.
As to `CN1C2CCC1CC(OC(=O)C(CO)c1ccccc1)C2` (configuration not stated), the EC50 was greater than 200 µM and the IC50 is greater than 200 µM.
`CC(C#N)NCc1ccccc1` (configuration not stated): the outcome was inactive.
For `Cc1noc(NS(=O)(=O)c2ccc(N)cc2)c1C`, the EC50 is greater than 200 µM and the IC50 was greater than 200 µM.
Take `Nc1ccc(C(=O)N/C(=C\c2ccc3c(c2)OCO3)c2nc3ccccc3s2)cc1`: the result was inactive.
In the case of `O=[N+]([O-])c1ccc2nc(/C=C(\O)c3ccccc3)c(/C=C(\O)c3ccccc3)nc2c1`, the EC50 was greater than 200 µM and the IC50 was determined as 20 µM.
In the same order, the values of `FC(F)(F)c1ccc2c3c(c4c(c2n1)OCN(Cc1ccc(Cl)cc1Cl)C4)CN(Cc1ccc(Cl)cc1Cl)CO3` are 0.282 µM and 4.37 µM.
As to `CN1C2CCC1/C(=C/c1cccc3c1OCO3)C(=O)/C2=C\c1cccc2c1OCO2`, the EC50 is greater than 6.76 µM and the IC50 is greater than 6.76 µM.
Take `COC1C(/C(=N\O)n2cnc3c(Cl)ncnc32)OC2OC(C)(C)OC21` (configuration not stated): the EC50 was greater than 200 µM and the IC50 was greater than 100 µM.
The corresponding values for `Cn1c(=O)cc(CC(=O)C(=O)O)c2ccccc21` are greater than 200 µM and 148 µM.
The corresponding values for `Cc1cc(C)c(-n2c(-c3ccc(Br)cc3)cs/c2=N\N=C2C=C(C(C)(C)C)C(=O)C(C(C)(C)C)=C2)c(C)c1` are greater than 2.45 µM and greater than 2.45 µM.
In the same order, the values of `O=C1c2cc3c(cc2NC(c2ccccc2F)C1O)OCO3` (configuration not stated) are greater than 200 µM and 12 µM.
Regarding `CNC(=O)N(C)C(=O)c1ccccc1C(=O)N(C)C(=O)NC`, the EC50 was greater than 200 µM and the IC50 was greater than 200 µM.
For `COc1cccc(CC2C(=O)NC(=O)NC2=O)c1`, the EC50 is greater than 200 µM and the IC50 was greater than 200 µM.
As for `O=C(O)c1ccccc1Sc1ccccc1[N+](=O)[O-]`, the result was inactive.
As to `Cc1ccc(/C=N/Nc2cc(C)c3ccccc3n2)s1`, the EC50 was greater than 200 µM and the IC50 worked out at 10.7 µM.
With `C/C(=N\NC(=O)CCSCCC(=O)N/N=C(\C)c1ccc(OS(C)(=O)=O)cc1)c1ccc(OS(C)(=O)=O)cc1`, the EC50 is greater than 200 µM and the IC50 was greater than 200 µM.
For `O=C1C2C3C=C4c5ccccc5N(c5ccccc5)C4([C@@H]2C(=O)N1c1ccc(F)cc1)[C@H]1C(=O)N(c2ccc(F)cc2)C(=O)[C@@H]31` (some centres not stated), the EC50 is greater than 12 µM and the IC50 was greater than 12 µM.
As to `CC#N.CC#N.COC(=O)[C@H]1COC(=O)[N-]1.COC(=O)[C@H]1COC(=O)[N-]1.COC(=O)[C@H]1COC(=O)[N-]1.COC(=O)[C@H]1COC(=O)[N-]1.[Rh+2].[Rh+2]`, the EC50 is greater than 200 µM and the IC50 is greater than 200 µM.
On to `FC(F)(F)C12C34C=CC5(CCC6(C=CC1(CC3)O6)C52C(F)(F)F)O4` (configuration not stated), for which the result was inactive.
For the compound `Cc1cc(Cl)c(O)c(-c2cc(-c3cccc([N+](=O)[O-])c3)c3c(N)[nH]c(=S)nc3n2)c1`, the EC50 is greater than 200 µM and the IC50 worked out at 3.89 µM.
In the same order, the values of `Cn1c(=O)c2c(nc(N/N=c3\scc(-c4ccc(Cl)cc4)n3Cc3ccccc3)n2C)n(C)c1=O` are greater than 200 µM and 10.7 µM.
In the same order, the values of `CCn1c(=O)c(N=O)c(N)n(C2CC2)c1=O` are greater than 200 µM and greater than 200 µM.
In the same order, the values of `COc1c(C(=O)/C(=N/Nc2ccccc2)C(C)=O)c(O)c(OC)c2occc12` are greater than 200 µM and 38 µM.
With `CN(C)CC1CCC/C(=C\c2ccc(Cl)c(Cl)c2)C1=O` (configuration not stated), the outcome was inactive.
As for `CN(C)c1ccc2c3c(c(=O)oc2c1)CCC3`, the EC50 is greater than 79.4 µM and the IC50 is greater than 79.4 µM.
As for `Cc1ccnc2[nH]c3ccccc3c(=O)c12`, the EC50 was greater than 200 µM and the IC50 came to 14.5 µM.
Regarding `COc1ccc(-c2coc3cc(OC)cc(O)c3c2=O)cc1`, the EC50 was greater than 200 µM and the IC50 is greater than 200 µM.
For `CC1CCC2(CC1)CC(=O)N(N1CCCCC1)C2=O` (configuration not stated), the EC50 was greater than 200 µM and the IC50 is greater than 200 µM.
For the compound `O=C1C=CC(=O)C(CNc2ccc(C(=O)OC34CC5CC(CC(C5)C3)C4)cc2)=C1`, the EC50 was greater than 200 µM and the IC50 was 10.5 µM.
The corresponding values for `C=C(C)[C@@H]1CC[C@]2(CNC(=O)CC(C)(C)CC(=O)O)CC[C@]3(C)[C@H](CC[C@@H]4[C@@]5(C)CC[C@H](NC(=O)CC(C)(C)CC(=O)O)C(C)(C)[C@@H]5CC[C@]43C)[C@@H]12` are greater than 200 µM and 18.2 µM.
For the compound `COC(=O)C1=C(CS(=O)c2ccc([N+](=O)[O-])cc2[N+](=O)[O-])ON(C)C1c1ccccc1` (configuration not stated), the result was inactive.
In the case of `O=C1C2=C(c3ccccc31)C(c1ccc(F)cc1)N1C(=O)CCSC1=N2` (configuration not stated), the EC50 was greater than 37.2 µM and the IC50 was greater than 37.2 µM.
As for `COCCCCCCCCCCC(=O)O`, the EC50 is greater than 200 µM and the IC50 is greater than 200 µM.
On to `COC12OC3(C4OC41)C(C(=O)O[C@H]3CO)C2S(=O)(=O)c1ccccc1` (some centres not stated), for which the EC50 is greater than 200 µM and the IC50 was greater than 200 µM.
Turning to `COC(=O)C1(C)CCCC2(C)c3cc(OC)ccc3C(=O)C(Cl)C12` (configuration not stated), the EC50 is greater than 200 µM and the IC50 was found to be 30.2 µM.
Take `Cc1cc(Br)cc(C)c1NC(=O)C(=O)C(C(=O)c1ccncc1)C1OC(=O)c2ccccc21` (configuration not stated): the EC50 was greater than 339 µM and the IC50 is greater than 339 µM.
Consider `C/C=C/COC(=O)CO[N+](=O)[O-]`, for which the outcome was inactive.
Regarding `N#CNC(=NCCO)NCCO`, the EC50 was greater than 525 µM and the IC50 is greater than 525 µM.
As for `O=C1CS(=O)(=O)C(c2cccc(Cl)c2)N1N1C(=O)CS(=O)(=O)C1c1cccc(Cl)c1` (configuration not stated), the EC50 is greater than 200 µM and the IC50 was greater than 200 µM.
As for `CN(C)CCCNC(=O)c1c(O)c2ccccc2[nH]c1=O`, the EC50 was greater than 200 µM and the IC50 was greater than 200 µM.
As to `COc1nc2ncc([C@@H](OC(C)=O)[C@@H](COC(C)=O)OC(C)=O)nc2c(=O)n1C`, the EC50 is greater than 200 µM and the IC50 is greater than 200 µM.
For `N#CC1(C#N)N[C@@H](c2ccsc2)[C@H]2C(=O)N(c3ccccc3)C(=O)[C@H]21`, the EC50 is greater than 200 µM and the IC50 is 53.7 µM.
In the same order, the values of `CCCCCC=C(c1cc(Br)cc(C(=O)OC)c1OC)c1cc(Br)cc(C(=O)OC)c1OC` are 42.7 µM and 43.7 µM.
On to `COc1ccccc1NC(=S)Nc1cc(C)cc(C)n1`, for which the EC50 is greater than 200 µM and the IC50 is greater than 200 µM.
In the case of `CSc1nc(N)c2c(n1)NCNS2(=O)=O`, the EC50 is greater than 1000 µM and the IC50 is greater than 1000 µM.
`COc1ccc(NC(=O)CC(=O)n2nc(C)c(N=Nc3cccc(C)c3)c2C)cc1`: the EC50 is greater than 200 µM and the IC50 was greater than 200 µM.
With `c1ccc(SC2(Sc3ccccc3)CCCCCCCCCCC2)cc1`, the EC50 is greater than 200 µM and the IC50 was 166 µM.
The corresponding values for `CC(=O)OC1C(O)COC(O[C@H]2CC[C@]34C[C@]35CC[C@]3(C)C([C@@]6(C)CC[C@@H](C(C)(C)O)O6)[C@@H](O)C[C@@]3(C)C5C[C@H](OC3OCC(O)C(O)C3O)[C@H]4C2(C)C)C1OC1OCC(O)C(O)C1O` (some centres not stated) are greater than 200 µM and greater than 200 µM.
The corresponding values for `O=[N+]([O-])c1ccc(Sc2c3ccccc3nc3cc(Cl)ccc23)cc1` are greater than 3.98 µM and greater than 3.98 µM.
In the case of `Oc1ccc(I)c2cccnc12`, the EC50 was greater than 182 µM and the IC50 stood at 2.19 µM.
In the same order, the values of `CCN(CC)c1c(C)nnc2c(C)c(-c3ccccc3)nn12` are greater than 3.55 µM and greater than 3.55 µM.
The corresponding values for `C(=NCCCN1CCN(CCCN=Cc2cccc3ccccc23)CC1)c1cccc2ccccc12` are greater than 200 µM and 46.8 µM.
Turning to `COc1ccc(C2NC(=O)N3C(c4ccc(OC)cc4)NC(=O)N23)cc1` (configuration not stated), the result was inactive.
Turning to `CC1C2(C)OC(=N)C(C#N)(C(c3ccccc3)O2)C1(C#N)C#N` (configuration not stated), the EC50 was greater than 200 µM and the IC50 is 10.7 µM.
The corresponding values for `Cc1cc2n([O-])cccc-2[n+](=O)c1` are greater than 200 µM and greater than 200 µM.
For `CCN1C(=O)C(=O)OC1=C(c1ccccc1)c1ccccc1`, the result was inactive.
As to `CC1(C)OC2C(CF)OC(n3cc(Br)c(=O)[nH]c3=O)C2O1` (configuration not stated), the EC50 was greater than 200 µM and the IC50 was greater than 200 µM.
For the compound `CN(C)c1ccc(/C=C2\C=Cc3ccccc32)cc1Br`, the EC50 was greater than 8.32 µM and the IC50 was greater than 8.32 µM.
On to `COc1ccccc1C(N)c1ccccc1` (configuration not stated), for which the EC50 is greater than 501 µM and the IC50 came out at 89.1 µM.
In the same order, the values of `O=c1nc(SSc2ccn(C3OC(CO)C(O)C3O)c(=O)n2)ccn1C1OC(CO)C(O)C1O` (configuration not stated) are greater than 200 µM and 2.63 µM.
As to `O=C(Nc1ccc(Cl)c(Cl)c1)O/N=C\c1c(Cl)ccc([N+](=O)[O-])c1Cl`, the outcome was inactive.
In the case of `NC(C(F)(F)F)(C(F)(F)F)P(=O)(c1ccccc1)c1ccccc1`, the EC50 was greater than 200 µM and the IC50 was greater than 200 µM.
On to `O=C(CC(C(=O)c1cccs1)c1ccsc1)c1cccs1` (configuration not stated), for which the EC50 is greater than 200 µM and the IC50 is 40.7 µM.
The corresponding values for `COC1=CC2OC3OC(=O)CC3C2C(OCc2ccccc2)=C1` (configuration not stated) are greater than 31.6 µM and greater than 31.6 µM.

The values are drawn from PubChem BioAssay AID179 (DTP/NCI, 2004).
